pIC50: −log10 of the molar value.
Target: T1, human NPY Y5 receptor (Homo sapiens, UniProt Q15761)
T1 construct: expressed in transfected cells; host or cells: COS-7, CHO and LM(tk-)
T1 sequence (Q15761 1-445): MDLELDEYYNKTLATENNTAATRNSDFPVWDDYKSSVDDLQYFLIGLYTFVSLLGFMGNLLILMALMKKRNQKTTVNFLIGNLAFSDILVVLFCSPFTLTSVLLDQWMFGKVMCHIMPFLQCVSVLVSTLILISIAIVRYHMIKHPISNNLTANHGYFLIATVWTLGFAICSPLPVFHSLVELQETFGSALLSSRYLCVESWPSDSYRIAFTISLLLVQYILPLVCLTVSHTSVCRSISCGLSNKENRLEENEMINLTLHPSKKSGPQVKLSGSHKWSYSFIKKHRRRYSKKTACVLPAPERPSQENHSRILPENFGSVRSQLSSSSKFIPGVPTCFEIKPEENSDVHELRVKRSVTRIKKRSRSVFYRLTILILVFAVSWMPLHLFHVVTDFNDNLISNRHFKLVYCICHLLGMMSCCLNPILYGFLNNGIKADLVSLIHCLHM
Assay: test of inhibition of NPY binding ([125I] peptide YY binding to membranes of NPY Y5 receptor-expressing cells)
Conditions: [125I] peptide YY, 20,000 cpm, 25° C., 2 hours, pH 7.4; membranes of transfected cells; read-out: IC50 value (inhibition of specific binding of peptide YY)
Source text: cDNA Sequence encoding a human NPY Y5 receptor [International Publication Wo 96/16542] was cloned into expression vectors pcDNA3, pRc/RSV (manufactured by Invitrogen) and pCI-neo (manufactured by Promega). Using the cationic lipid method [see Proceedings of the National Academy of Science of the United States of America, vol.84, p.7413 (1987)], host cells COS-7, CHO and LM(tk-) (American Type Culture Collection) were transfected with the thus prepared expression vectors to obtain cells in which the NPY Y5 receptor had been expressed.
Each of the membrane preparations thus prepared from the cells in which the NPY Y5 receptor had been expressed was incubated together with each compound to be tested and 20,000 cpm of [^125 I] peptide YY (manufactured by Amersham) at 25° C. for 2 hours in an assay buffer solution (25 mM HEPES buffer, pH 7.4, containing 10 mM magnesium chloride, 1 mM phenylmethylsulfonyl fluoride and 0.1% bacitracin) and then, the reaction mixture was filtered through a glass filter GF/C. After washing with 50 mM Tris buffer, pH 7.4, containing 0.3% BSA, radioactivity on the glass filter was measured using a gamma counter. […]

**Q.** How did the pIC50 turn out when `COc1ccc(-c2cc(NC(=O)C3CCN(c4cccc(Cl)c4)CC3)n[nH]2)cc1` [Example 4, 3-[1-(3-chlorophenyl)piperidin-4-yl]carbonylamino-5-(4-methoxyphenyl)pyrazole] was run?
**A.** The pIC50 was 7.41.

From patent US6166038A, “Aminopyrazole derivatives” (Banyu Pharmaceutical Co., Ltd., priority 1996, dated 2000)
